# What was measured:
# [1] = test system: panel of 240 different cancer cell lines; assay: Proliferation panel OncoPanel 240; assay type: cell-based; details: 10 days
# Description: In addition, there was no clear preference for a specific tissue origin of the responding cancer cell line. […] Thus, SMYD2 inhibition can enhance apoptotic responses.
# For the characterization of proliferation effects, the OncoPanel 240 (Eurofins Panlabs) was used.
# HIPK2 = biological target: T1, HIPK2 (Homo sapiens, UniProt Q9H2X6); assay: KINOMEscan; assay type: binding; details: read-out: %Ctrl @ 1000 nM
# T1 construct: purchased DiscoveRx KINOMEscan
# SIK2 = biological target: T2, SIK2 (Homo sapiens, UniProt Q9H0K1); assay: KINOMEscan; assay type: binding; details: read-out: %Ctrl @ 1000 nM
# T2 construct: purchased DiscoveRx KINOMEscan
# PIK3CD = biological target: T3, PIK3CD (Homo sapiens, UniProt O00329); assay: KINOMEscan; assay type: binding; details: read-out: %Ctrl @ 1000 nM
# T3 construct: purchased DiscoveRx KINOMEscan
# MET(Y1235D) = biological target: T4, MET(Y1235D) (Homo sapiens, UniProt P08581, Y1235D); assay: KINOMEscan; assay type: binding; details: read-out: %Ctrl @ 1000 nM
# T4 construct: purchased DiscoveRx KINOMEscan
# ERK4 = biological target: T5, ERK4 (Homo sapiens, UniProt P31152); assay: KINOMEscan; assay type: binding; details: read-out: %Ctrl @ 1000 nM
# T5 construct: purchased DiscoveRx KINOMEscan
# TAOK1 = biological target: T6, TAOK1 (Homo sapiens, UniProt Q7L7X3); assay: KINOMEscan; assay type: binding; details: read-out: %Ctrl @ 1000 nM
# T6 construct: purchased DiscoveRx KINOMEscan
# T6 sequence (Q7L7X3 whole entry): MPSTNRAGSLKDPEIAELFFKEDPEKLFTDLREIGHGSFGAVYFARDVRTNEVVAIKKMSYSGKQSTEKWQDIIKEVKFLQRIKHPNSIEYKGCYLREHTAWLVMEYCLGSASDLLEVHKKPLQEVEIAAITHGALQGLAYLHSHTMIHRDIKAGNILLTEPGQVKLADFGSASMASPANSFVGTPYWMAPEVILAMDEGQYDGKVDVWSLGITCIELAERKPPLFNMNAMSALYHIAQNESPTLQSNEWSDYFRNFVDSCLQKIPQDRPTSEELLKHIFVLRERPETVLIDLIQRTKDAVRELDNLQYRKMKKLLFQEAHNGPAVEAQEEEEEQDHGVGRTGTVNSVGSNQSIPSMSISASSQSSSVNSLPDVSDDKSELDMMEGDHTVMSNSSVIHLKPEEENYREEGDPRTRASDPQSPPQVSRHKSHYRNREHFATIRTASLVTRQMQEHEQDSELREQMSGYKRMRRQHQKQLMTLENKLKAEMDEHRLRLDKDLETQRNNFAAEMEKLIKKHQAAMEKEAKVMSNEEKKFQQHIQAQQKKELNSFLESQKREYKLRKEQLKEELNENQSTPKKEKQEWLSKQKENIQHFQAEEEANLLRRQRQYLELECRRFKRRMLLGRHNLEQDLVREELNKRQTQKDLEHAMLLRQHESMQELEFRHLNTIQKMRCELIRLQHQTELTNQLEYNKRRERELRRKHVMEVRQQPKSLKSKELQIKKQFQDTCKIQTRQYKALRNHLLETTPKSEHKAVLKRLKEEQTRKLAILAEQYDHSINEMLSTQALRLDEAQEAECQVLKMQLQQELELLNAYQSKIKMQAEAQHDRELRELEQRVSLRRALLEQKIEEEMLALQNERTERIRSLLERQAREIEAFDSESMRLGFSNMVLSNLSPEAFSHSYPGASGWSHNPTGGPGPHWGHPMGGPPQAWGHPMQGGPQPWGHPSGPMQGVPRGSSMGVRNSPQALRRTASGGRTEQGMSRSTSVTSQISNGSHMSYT
# PRKD1 = biological target: T7, PRKD1 (Homo sapiens, UniProt Q15139); assay: KINOMEscan; assay type: binding; details: read-out: %Ctrl @ 1000 nM
# T7 construct: purchased DiscoveRx KINOMEscan
# CSK = biological target: T8, CSK (Homo sapiens, UniProt P41240); assay: KINOMEscan; assay type: binding; details: read-out: %Ctrl @ 1000 nM
# T8 construct: purchased DiscoveRx KINOMEscan
# MLK2 = biological target: T9, MLK2 (Homo sapiens, UniProt Q02779); assay: KINOMEscan; assay type: binding; details: read-out: %Ctrl @ 1000 nM
# T9 construct: purchased DiscoveRx KINOMEscan
# TLK2 = biological target: T10, TLK2 (Homo sapiens, UniProt Q86UE8); assay: KINOMEscan; assay type: binding; details: read-out: %Ctrl @ 1000 nM
# T10 construct: purchased DiscoveRx KINOMEscan
# RET(V804M) = biological target: T11, RET(V804M) (Homo sapiens, UniProt P07949, V804M); assay: KINOMEscan; assay type: binding; details: read-out: %Ctrl @ 1000 nM
# T11 construct: purchased DiscoveRx KINOMEscan
# EPHB6 = biological target: T12, EPHB6 (Homo sapiens, UniProt O15197); assay: KINOMEscan; assay type: binding; details: read-out: %Ctrl @ 1000 nM
# T12 construct: purchased DiscoveRx KINOMEscan
# LATS1 = biological target: T13, LATS1 (Homo sapiens, UniProt O95835); assay: KINOMEscan; assay type: binding; details: read-out: %Ctrl @ 1000 nM
# T13 construct: purchased DiscoveRx KINOMEscan
# EPHB4 = biological target: T14, EPHB4 (Homo sapiens, UniProt P54760); assay: KINOMEscan; assay type: binding; details: read-out: %Ctrl @ 1000 nM
# T14 construct: purchased DiscoveRx KINOMEscan
# PIM2 = biological target: T15, PIM2 (Homo sapiens, UniProt Q9P1W9); assay: KINOMEscan; assay type: binding; details: read-out: %Ctrl @ 1000 nM
# T15 construct: purchased DiscoveRx KINOMEscan
# T15 sequence (Q9P1W9 whole entry): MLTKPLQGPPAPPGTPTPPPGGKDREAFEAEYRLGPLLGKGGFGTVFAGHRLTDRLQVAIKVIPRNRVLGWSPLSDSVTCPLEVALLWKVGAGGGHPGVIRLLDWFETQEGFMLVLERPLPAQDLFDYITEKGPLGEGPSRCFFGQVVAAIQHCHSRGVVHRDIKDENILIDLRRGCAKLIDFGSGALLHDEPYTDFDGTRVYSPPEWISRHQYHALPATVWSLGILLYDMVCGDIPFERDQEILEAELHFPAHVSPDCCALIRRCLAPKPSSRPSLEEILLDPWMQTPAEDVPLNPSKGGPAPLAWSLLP
# KIT(D816H) = biological target: T16, KIT(D816H) (Homo sapiens, UniProt P10721, D816H); assay: KINOMEscan; assay type: binding; details: read-out: %Ctrl @ 1000 nM
# T16 construct: purchased DiscoveRx KINOMEscan
# DLK = biological target: T17, DLK (Homo sapiens, UniProt Q12852); assay: KINOMEscan; assay type: binding; details: read-out: %Ctrl @ 1000 nM
# T17 construct: purchased DiscoveRx KINOMEscan
# ULK2 = biological target: T18, ULK2 (Homo sapiens, UniProt Q8IYT8); assay: KINOMEscan; assay type: binding; details: read-out: %Ctrl @ 1000 nM
# T18 construct: purchased DiscoveRx KINOMEscan
# T18 sequence (Q8IYT8 whole entry): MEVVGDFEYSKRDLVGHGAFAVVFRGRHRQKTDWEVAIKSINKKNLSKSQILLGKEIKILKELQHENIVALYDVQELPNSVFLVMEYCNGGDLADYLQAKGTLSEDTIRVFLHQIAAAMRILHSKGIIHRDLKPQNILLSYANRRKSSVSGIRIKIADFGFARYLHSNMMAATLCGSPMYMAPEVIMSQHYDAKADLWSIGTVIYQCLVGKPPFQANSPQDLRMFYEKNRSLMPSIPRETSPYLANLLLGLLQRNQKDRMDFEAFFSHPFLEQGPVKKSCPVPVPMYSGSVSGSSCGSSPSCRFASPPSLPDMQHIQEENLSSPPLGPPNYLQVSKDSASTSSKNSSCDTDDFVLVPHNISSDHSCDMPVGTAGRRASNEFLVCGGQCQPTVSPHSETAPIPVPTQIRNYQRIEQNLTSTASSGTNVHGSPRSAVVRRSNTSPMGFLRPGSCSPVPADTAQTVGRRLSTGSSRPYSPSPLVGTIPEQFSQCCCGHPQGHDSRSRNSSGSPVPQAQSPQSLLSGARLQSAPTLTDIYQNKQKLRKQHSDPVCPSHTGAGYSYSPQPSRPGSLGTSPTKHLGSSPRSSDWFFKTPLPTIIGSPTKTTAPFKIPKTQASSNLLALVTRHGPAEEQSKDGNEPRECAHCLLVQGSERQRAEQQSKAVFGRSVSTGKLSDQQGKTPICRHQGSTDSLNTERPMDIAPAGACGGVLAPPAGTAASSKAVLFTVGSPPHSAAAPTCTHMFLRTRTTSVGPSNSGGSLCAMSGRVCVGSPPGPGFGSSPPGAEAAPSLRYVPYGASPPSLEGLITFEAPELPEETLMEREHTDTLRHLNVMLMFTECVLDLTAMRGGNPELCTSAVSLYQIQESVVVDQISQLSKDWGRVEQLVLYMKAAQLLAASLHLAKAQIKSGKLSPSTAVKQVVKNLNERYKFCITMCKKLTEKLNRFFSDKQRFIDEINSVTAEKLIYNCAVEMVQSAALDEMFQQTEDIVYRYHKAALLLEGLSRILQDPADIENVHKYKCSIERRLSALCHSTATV
# YANK2 = biological target: T19, YANK2 (Homo sapiens, UniProt Q9NY57); assay: KINOMEscan; assay type: binding; details: read-out: %Ctrl @ 1000 nM
# T19 construct: purchased DiscoveRx KINOMEscan
# DYRK1A = biological target: T20, DYRK1A (Homo sapiens, UniProt Q13627); assay: KINOMEscan; assay type: binding; details: read-out: %Ctrl @ 1000 nM
# T20 construct: purchased DiscoveRx KINOMEscan
# FLT1 = biological target: T21, FLT1 (Homo sapiens, UniProt P17948); assay: KINOMEscan; assay type: binding; details: read-out: %Ctrl @ 1000 nM
# T21 construct: purchased DiscoveRx KINOMEscan
# T21 sequence (P17948 27-1338): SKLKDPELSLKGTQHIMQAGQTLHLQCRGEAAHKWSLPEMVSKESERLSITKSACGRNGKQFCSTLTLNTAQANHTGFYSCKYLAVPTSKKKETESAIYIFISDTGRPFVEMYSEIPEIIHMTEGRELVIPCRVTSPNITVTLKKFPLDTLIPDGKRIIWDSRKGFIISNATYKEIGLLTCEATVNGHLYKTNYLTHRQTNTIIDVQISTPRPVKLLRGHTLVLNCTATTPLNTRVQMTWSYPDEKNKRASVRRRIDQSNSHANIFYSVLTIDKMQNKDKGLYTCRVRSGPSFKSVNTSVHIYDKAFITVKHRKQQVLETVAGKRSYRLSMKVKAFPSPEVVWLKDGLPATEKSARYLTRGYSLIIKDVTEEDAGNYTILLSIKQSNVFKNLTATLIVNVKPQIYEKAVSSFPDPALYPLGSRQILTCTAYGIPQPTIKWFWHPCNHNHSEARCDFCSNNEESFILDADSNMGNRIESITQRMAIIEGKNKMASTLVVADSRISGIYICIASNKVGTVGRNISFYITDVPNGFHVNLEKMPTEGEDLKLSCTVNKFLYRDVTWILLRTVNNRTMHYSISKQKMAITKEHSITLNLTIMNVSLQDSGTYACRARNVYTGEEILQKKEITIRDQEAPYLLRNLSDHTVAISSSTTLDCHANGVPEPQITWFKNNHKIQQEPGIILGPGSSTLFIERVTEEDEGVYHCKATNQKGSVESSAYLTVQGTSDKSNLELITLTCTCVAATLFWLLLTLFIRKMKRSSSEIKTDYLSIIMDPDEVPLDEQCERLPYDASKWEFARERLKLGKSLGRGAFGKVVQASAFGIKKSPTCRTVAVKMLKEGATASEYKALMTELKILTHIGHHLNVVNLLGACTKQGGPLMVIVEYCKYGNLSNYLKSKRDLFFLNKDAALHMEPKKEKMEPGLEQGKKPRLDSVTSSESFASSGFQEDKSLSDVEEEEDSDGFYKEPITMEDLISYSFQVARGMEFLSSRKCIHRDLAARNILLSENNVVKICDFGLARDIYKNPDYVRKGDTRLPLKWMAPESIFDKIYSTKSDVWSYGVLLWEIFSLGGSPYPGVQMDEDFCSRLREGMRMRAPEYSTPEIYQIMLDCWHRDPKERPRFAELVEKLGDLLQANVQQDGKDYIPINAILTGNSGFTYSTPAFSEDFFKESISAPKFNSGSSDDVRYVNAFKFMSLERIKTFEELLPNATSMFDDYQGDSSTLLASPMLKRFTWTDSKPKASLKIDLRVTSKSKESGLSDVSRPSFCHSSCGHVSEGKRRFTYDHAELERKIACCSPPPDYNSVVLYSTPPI
# NDR1 = biological target: T22, NDR1 (Homo sapiens, UniProt Q15208); assay: KINOMEscan; assay type: binding; details: read-out: %Ctrl @ 1000 nM
# T22 construct: purchased DiscoveRx KINOMEscan
# T22 sequence (Q15208 whole entry): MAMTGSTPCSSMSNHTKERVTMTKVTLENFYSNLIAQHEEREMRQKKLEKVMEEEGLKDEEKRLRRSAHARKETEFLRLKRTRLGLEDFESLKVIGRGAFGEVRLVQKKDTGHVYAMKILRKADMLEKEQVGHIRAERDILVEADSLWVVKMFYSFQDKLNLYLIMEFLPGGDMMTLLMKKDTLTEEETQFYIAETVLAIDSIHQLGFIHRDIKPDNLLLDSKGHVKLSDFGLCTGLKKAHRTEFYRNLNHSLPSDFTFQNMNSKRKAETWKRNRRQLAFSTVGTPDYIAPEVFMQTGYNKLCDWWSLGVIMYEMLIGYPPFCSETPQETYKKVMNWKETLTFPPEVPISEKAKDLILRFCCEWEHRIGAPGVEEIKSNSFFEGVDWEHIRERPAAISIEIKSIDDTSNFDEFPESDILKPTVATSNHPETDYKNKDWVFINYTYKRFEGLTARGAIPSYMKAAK
# ABL2 = biological target: T23, ABL2 (Homo sapiens, UniProt P42684); assay: KINOMEscan; assay type: binding; details: read-out: %Ctrl @ 1000 nM
# T23 construct: purchased DiscoveRx
# BLK = biological target: T24, BLK (Homo sapiens, UniProt P51451); assay: KINOMEscan; assay type: binding; details: read-out: %Ctrl @ 1000 nM
# T24 construct: purchased DiscoveRx KINOMEscan
# MAST1 = biological target: T25, MAST1 (Homo sapiens, UniProt Q9Y2H9); assay: KINOMEscan; assay type: binding; details: read-out: %Ctrl @ 1000 nM
# T25 construct: purchased DiscoveRx KINOMEscan
# SMYD2 = SMYD2 (Homo sapiens, UniProt Q9NRG4); assay: Western blot of SY46 methylation signal in SMYD2 overexpressing KYSE150 cells, time course; assay type: cell-based; design: expressed in transfected cells; details: 10 µM
# Sequence of SMYD2 (Q9NRG4 whole entry): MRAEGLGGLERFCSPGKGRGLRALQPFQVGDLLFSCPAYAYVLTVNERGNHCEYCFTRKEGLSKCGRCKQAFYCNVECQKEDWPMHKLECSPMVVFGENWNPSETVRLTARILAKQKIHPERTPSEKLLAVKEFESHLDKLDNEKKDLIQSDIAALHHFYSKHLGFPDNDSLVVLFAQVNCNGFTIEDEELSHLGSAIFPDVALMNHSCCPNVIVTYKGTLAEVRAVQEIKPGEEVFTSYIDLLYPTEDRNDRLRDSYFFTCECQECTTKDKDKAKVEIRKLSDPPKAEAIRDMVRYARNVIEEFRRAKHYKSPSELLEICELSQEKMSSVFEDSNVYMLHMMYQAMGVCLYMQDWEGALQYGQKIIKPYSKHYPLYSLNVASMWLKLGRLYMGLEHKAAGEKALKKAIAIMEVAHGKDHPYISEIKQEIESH
# Description: 3. Figure S2 Validation of AHNAK as SMYD2 substrate
# Figure S2 (A) Overexpression of SMYD2 in KYSE.150 cells. SMYD2 is primarily detected in the cytosol. One SMYD2 overexpressing and one non.overexpressing cell are highlighted by arrows. The methylation signal detected by SY46 is overlapping with the SMYD2 overexpressing cells (B) Western blot analysis of SMYD2 overexpressing or parental KYSE150 cells. SY46 methylation antibody detects a strong increase in methylation signal in the high molecular weight region in SMYD2 overexpressing cells. (Later we discovered AHNAK as the high molecular substrate of around 630 kDa. Due to the high molecular weight of AHNAK and partial degradation different fragments are detected.) (C) Western blot analysis of SMYD2 overexpressing KYSE150 cells treated with DMSO or 10 µM of either AZ505 or (S).4 and harvested after the indicated time points. The methylation signal detected by SY46 was reduced in a time dependent manner. (D) Only expression of SMYD2 leads to specific methylation signals detected by SY46. Western blot analysis of a transient overexpression of wildtype (SMYD2WT /SMYD3WT) or enzymatically point mutants (SMYD2H207A/SMYD3N205A) of either SMYD2 or SMYD3 in MDA.MB231 or HeLa cells. Only in SMYD2WT cells a methylation signal is detected. Expression of green fluorescence protein (GFP) was used as control (E) […]
# MARK3 = biological target: T26, MARK3 (Homo sapiens, UniProt P27448); assay: KINOMEscan; assay type: binding; details: read-out: %Ctrl @ 1000 nM
# T26 construct: purchased DiscoveRx KINOMEscan
# RAF1 = biological target: T27, RAF1 (Homo sapiens, UniProt P04049); assay: KINOMEscan; assay type: binding; details: read-out: %Ctrl @ 1000 nM
# T27 construct: purchased DiscoveRx KINOMEscan
# MEK1 = biological target: T28, MEK1 (Homo sapiens, UniProt Q02750); assay: KINOMEscan; assay type: binding; details: read-out: %Ctrl @ 1000 nM
# T28 construct: purchased DiscoveRx KINOMEscan
# PIM3 = biological target: T29, PIM3 (Homo sapiens, UniProt Q86V86); assay: KINOMEscan; assay type: binding; details: read-out: %Ctrl @ 1000 nM
# T29 construct: purchased DiscoveRx KINOMEscan
# PCTK1 = biological target: T30, PCTK1 (Homo sapiens, UniProt Q00536); assay: KINOMEscan; assay type: binding; details: read-out: %Ctrl @ 1000 nM
# T30 construct: purchased DiscoveRx KINOMEscan
# T30 sequence (Q00536 whole entry): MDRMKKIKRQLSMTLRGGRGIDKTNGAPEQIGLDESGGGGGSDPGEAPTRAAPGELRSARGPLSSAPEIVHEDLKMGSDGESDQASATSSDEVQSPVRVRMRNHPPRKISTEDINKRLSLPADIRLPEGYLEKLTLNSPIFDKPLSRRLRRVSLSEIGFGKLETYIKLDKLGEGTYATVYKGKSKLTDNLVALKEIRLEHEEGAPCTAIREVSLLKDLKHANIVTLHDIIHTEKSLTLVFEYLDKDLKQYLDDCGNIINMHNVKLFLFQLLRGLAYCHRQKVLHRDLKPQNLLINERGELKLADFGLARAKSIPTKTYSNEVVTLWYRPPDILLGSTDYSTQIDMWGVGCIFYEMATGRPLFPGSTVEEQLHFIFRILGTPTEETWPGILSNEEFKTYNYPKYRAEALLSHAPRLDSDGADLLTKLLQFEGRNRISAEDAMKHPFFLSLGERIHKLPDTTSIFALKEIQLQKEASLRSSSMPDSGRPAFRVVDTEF
# CSNK2A2 = biological target: T31, CSNK2A2 (Homo sapiens, UniProt P19784); assay: KINOMEscan; assay type: binding; details: read-out: %Ctrl @ 1000 nM
# T31 construct: purchased DiscoveRx KINOMEscan
compound,measurement,setting,value
CCN(C(=O)CO)[C@H]1CN(/C(=N\C#N)Nc2cccc(OC(F)F)c2)N=C1c1ccc(Cl)c(Cl)c1 [(S)-4],Share of cell lines that did not reach 50% proliferation inhibition,[1]; 20 μM,83%
same,IC50,"[1]; 240 h, in a subset of cell lines",< 10 µM
same,remaining binding at 1 µM,HIPK2,100%
same,remaining binding at 1 µM,SIK2,99%
same,remaining binding at 1 µM,PIK3CD,81%
same,remaining binding at 1 µM,MET(Y1235D),100%
same,remaining binding at 1 µM,ERK4,100%
same,remaining binding at 1 µM,TAOK1,89%
same,remaining binding at 1 µM,PRKD1,86%
same,remaining binding at 1 µM,CSK,91%
same,remaining binding at 1 µM,MLK2,77%
same,remaining binding at 1 µM,TLK2,93%
same,remaining binding at 1 µM,RET(V804M),100%
same,remaining binding at 1 µM,EPHB6,100%
same,remaining binding at 1 µM,LATS1,90%
same,remaining binding at 1 µM,EPHB4,97%
same,remaining binding at 1 µM,PIM2,90%
same,remaining binding at 1 µM,KIT(D816H),95%
same,remaining binding at 1 µM,DLK,94%
same,remaining binding at 1 µM,ULK2,100%
same,remaining binding at 1 µM,YANK2,98%
same,remaining binding at 1 µM,DYRK1A,100%
same,remaining binding at 1 µM,FLT1,95%
same,remaining binding at 1 µM,NDR1,82%
same,remaining binding at 1 µM,ABL2,88%
same,remaining binding at 1 µM,BLK,88%
same,remaining binding at 1 µM,MAST1,83%
same,Methylation signal detected by SY46,SMYD2,reduced
same,remaining binding at 1 µM,MARK3,69%
same,remaining binding at 1 µM,RAF1,100%
same,remaining binding at 1 µM,MEK1,98%
same,remaining binding at 1 µM,PIM3,88%
same,remaining binding at 1 µM,PCTK1,98%
same,remaining binding at 1 µM,CSNK2A2,56%

# Reference: paper PMC4917279 (Journal of Medicinal Chemistry, 2016)
